Measured values as given in patent publication US20150274658A1, “THERAPEUTIC LACTAMS” (Allergan, Inc., priority 2014, published 2015).

Columns and labels:
EP2 [1] = target: T1, EP2 (Homo sapiens, UniProt P43116); test: EP2 cAMP functional assay; type: cell-based
Text: (§1) U.S. patent application Ser. No. 11/553,143, filed on Oct. 26, 2006, incorporated by reference herein, describes the methods used to obtain the in vitro data in the table below.

EP2 [2] = target: T1, EP2; test: EP2 binding (Ki)
Text: as §1

T1 sequence (P43116 whole entry): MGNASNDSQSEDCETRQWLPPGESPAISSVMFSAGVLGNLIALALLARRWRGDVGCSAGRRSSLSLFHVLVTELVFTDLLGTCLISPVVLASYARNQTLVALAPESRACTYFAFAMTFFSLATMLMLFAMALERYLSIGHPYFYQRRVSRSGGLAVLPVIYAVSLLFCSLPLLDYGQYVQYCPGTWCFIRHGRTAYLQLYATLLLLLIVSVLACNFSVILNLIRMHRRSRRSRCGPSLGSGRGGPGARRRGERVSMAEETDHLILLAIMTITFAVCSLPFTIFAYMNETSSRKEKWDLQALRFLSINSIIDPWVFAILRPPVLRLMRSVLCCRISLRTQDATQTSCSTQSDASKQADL

| EC50 (EP2 [1]) | Ki (EP2 [2]) | Structure (SMILES) |
| --- | --- | --- |
| 233 nM |  | CCCCCC(O)c1ccc(N2C(=O)C(C)C[C@@H]2COCc2ccc(C(=O)O)s2)cc1 (single isomer, unassigned) [Example 1] |
|  | > 10000 nM | CCCCCC(O)c1ccc(N2C(=O)C(C)C[C@@H]2COCc2ccc(C(=O)O)s2)cc1 (single isomer, unassigned) [Example 2] |
